Experimental data published in BindingDB's records for doi:10.1016/j.bmcl.2005.12.017 (Abbott Laboratories, 2006).

biological target: T1, RAC-alpha serine/threonine-protein kinase [139-480,S378A,S381A,T450D,S473D] (Homo sapiens, UniProt P31749, S378A/S381A/S473D/T450D); assay: Akt Kinase Assay; conditions: not given
T1 construct: 139-480
Experimental: The kinase assay uses His-Akt1 and a biotinylated peptide as substrate. The biotinylated peptides were immobilized on streptavidin-coated FLASH plates. After reaction, the 33P-phosphopeptide captured on the FLASH plates was measured with a TopCount Packard Instruments […] (Packard Instruments, Boston, MA).

T1 sequence (P31749 139-480 S378A/S381A/T450D/S473D): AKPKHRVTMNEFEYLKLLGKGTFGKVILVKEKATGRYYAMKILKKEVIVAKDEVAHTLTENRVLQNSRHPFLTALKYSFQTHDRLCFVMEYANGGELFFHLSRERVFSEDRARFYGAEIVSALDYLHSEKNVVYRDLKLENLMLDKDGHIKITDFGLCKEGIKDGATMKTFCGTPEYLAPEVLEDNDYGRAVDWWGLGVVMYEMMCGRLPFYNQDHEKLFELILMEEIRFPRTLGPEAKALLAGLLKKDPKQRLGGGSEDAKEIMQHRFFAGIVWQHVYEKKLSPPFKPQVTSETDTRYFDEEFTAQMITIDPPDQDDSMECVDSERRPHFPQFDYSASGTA

| SMILES | IC50 [nM] |
| --- | --- |
| N[C@H](COc1cncc(/C=C/c2ccnc(-n3ccc4ccccc43)c2)c1)Cc1c[nH]c2ccccc12 [1-{4-[(E)-2-{5-[(2S)-2-amino-3-(1H-indol-3-yl)propoxy]pyridin-3-yl}ethenyl]pyridin-2-yl}-1H-indole] | 3340 |
| N[C@H](COc1ccc(/C=C/c2ccncc2)cn1)Cc1ccccc1 [2-[(2S)-2-amino-3-phenylpropoxy]-5-[(E)-2-(pyridin-4-yl)ethenyl]pyridine] | 43000 |
| NCC(c1ccccc1)c1cncc(/C=C/c2ccncc2)c1 (configuration not stated) [2-phenyl-2-{5-[(E)-2-(pyridin-4-yl)ethenyl]pyridin-3-yl}ethan-1-amine] | 284 |
| N[C@H](COc1cncc(/C=C/c2ccncc2)c1)Cc1csc2ccccc12 [3-[(2S)-2-amino-3-(1-benzothiophen-3-yl)propoxy]-5-[(E)-2-(pyridin-4-yl)ethenyl]pyridine] | 142 |
| COc1cc(/C=C/c2cncc(OC[C@@H](N)Cc3c[nH]c4ccccc34)c2)ccn1 [3-[(2S)-2-amino-3-({5-[(E)-2-(2-methoxypyridin-4-yl)ethenyl]pyridin-3-yl}oxy)propyl]-1H-indole] | 2670 |
| N[C@H](COc1cncc(/C=C/c2ccnc(Oc3ccccc3)c2)c1)Cc1c[nH]c2ccccc12 [3-[(2S)-2-amino-3-({5-[(E)-2-(2-phenoxypyridin-4-yl)ethenyl]pyridin-3-yl}oxy)propyl]-1H-indole] | 6450 |
| Cn1cc(C[C@H](N)COc2cncc(/C=C/c3ccncc3)c2)c2ccccc21 [3-[(2S)-2-amino-3-({5-[(E)-2-(pyridin-4-yl)ethenyl]pyridin-3-yl}oxy)propyl]-1-methyl-1H-indole] | 500 |
| N[C@H](COc1cncc(/C=C/c2ccnc(SCc3ccccc3)c2)c1)Cc1c[nH]c2ccccc12 [3-[(2S)-2-amino-3-({5-[(E)-2-[2-(benzylsulfanyl)pyridin-4-yl]ethenyl]pyridin-3-yl}oxy)propyl]-1H-indole] | 3110 |
| N[C@H](COc1cncc(/C=C/c2ccnc(Sc3ccccc3)c2)c1)Cc1c[nH]c2ccccc12 [3-[(2S)-2-amino-3-({5-[(E)-2-[2-(phenylsulfanyl)pyridin-4-yl]ethenyl]pyridin-3-yl}oxy)propyl]-1H-indole] | 6350 |
| N[C@H](COc1cccc(/C=C/c2ccncc2)n1)Cc1c[nH]c2ccccc12 [3-[(2S)-2-amino-3-({6-[(E)-2-(pyridin-4-yl)ethenyl]pyridin-2-yl}oxy)propyl]-1H-indole] | 23300 |
| N[C@H](COc1cnc(Cl)c(/C=C/c2ccncc2)c1)Cc1c[nH]c2ccccc12 [3-[(2S)-2-amino-3-({6-chloro-5-[(E)-2-(pyridin-4-yl)ethenyl]pyridin-3-yl}oxy)propyl]-1H-indole] | 23 |
| N[C@H](COc1cncc(/C=C/c2ccnc(NCc3ccccc3)c2)c1)Cc1c[nH]c2ccccc12 [4-[(E)-2-{5-[(2S)-2-amino-3-(1H-indol-3-yl)propoxy]pyridin-3-yl}ethenyl]-N-benzylpyridin-2-amine] | 147 |
| N[C@H](COc1cncc(/C=C/c2ccnc(NC3CC3)c2)c1)Cc1c[nH]c2ccccc12 [4-[(E)-2-{5-[(2S)-2-amino-3-(1H-indol-3-yl)propoxy]pyridin-3-yl}ethenyl]-N-cyclopropylpyridin-2-amine] | 69 |
| CCNc1cc(/C=C/c2cncc(OC[C@@H](N)Cc3c[nH]c4ccccc34)c2)ccn1 [4-[(E)-2-{5-[(2S)-2-amino-3-(1H-indol-3-yl)propoxy]pyridin-3-yl}ethenyl]-N-ethylpyridin-2-amine] | 163 |
| CNc1cc(/C=C/c2cncc(OC[C@@H](N)Cc3c[nH]c4ccccc34)c2)ccn1 [4-[(E)-2-{5-[(2S)-2-amino-3-(1H-indol-3-yl)propoxy]pyridin-3-yl}ethenyl]-N-methylpyridin-2-amine] | 176 |
| Nc1cc(/C=C/c2cncc(OC[C@@H](N)Cc3c[nH]c4ccccc34)c2)ccn1 [4-[(E)-2-{5-[(2S)-2-amino-3-(1H-indol-3-yl)propoxy]pyridin-3-yl}ethenyl]pyridin-2-amine] | 121 |
| N[C@H](CCc1cnc(Cl)c(/C=C/c2ccncc2)c1)Cc1c[nH]c2ccccc12 [(2R)-4-{6-chloro-5-[(E)-2-(pyridin-4-yl)ethenyl]pyridin-3-yl}-1-(1H-indol-3-yl)butan-2-amine] | 198 |
| N[C@@H](Cc1ccccc1)C(=O)Nc1cncc(/C=C/c2ccncc2)c1 [(2S)-2-amino-3-phenyl-N-{5-[(E)-2-(pyridin-4-yl)ethenyl]pyridin-3-yl}propanamide] | 3200 |
| N[C@H](CNc1cncc(/C=C/c2ccncc2)c1)Cc1c[nH]c2ccccc12 [N-[(2S)-2-amino-3-(1H-indol-3-yl)propyl]-5-[(E)-2-(pyridin-4-yl)ethenyl]pyridin-3-amine] | 9.7 |
| N[C@H](CNc1cnc(Cl)c(/C=C/c2ccncc2)c1)Cc1c[nH]c2ccccc12 [N-[(2S)-2-amino-3-(1H-indol-3-yl)propyl]-6-chloro-5-[(E)-2-(pyridin-4-yl)ethenyl]pyridin-3-amine] | 19 |
| N[C@H](CNc1cnc(Cl)c(/C=C/c2ccncc2)c1)CC1CNc2ccccc21 (stereo partly drawn) [N-[(2S)-2-amino-3-(2,3-dihydro-1H-indol-3-yl)propyl]-6-chloro-5-[(E)-2-(pyridin-4-yl)ethenyl]pyridin-3-amine] | 79 |
| Brc1ccc(/C=C/CNCCOc2cncc(/C=C/c3ccncc3)c2)cc1 [[(2E)-3-(4-bromophenyl)prop-2-en-1-yl][2-({5-[(E)-2-(pyridin-4-yl)ethenyl]pyridin-3-yl}oxy)ethyl]amine] | 32200 |
| CN(C)[C@H](COc1cncc(/C=C/c2ccncc2)c1)Cc1c[nH]c2ccccc12 [[(2S)-1-(1H-indol-3-yl)-3-({5-[(E)-2-(pyridin-4-yl)ethenyl]pyridin-3-yl}oxy)propan-2-yl]dimethylamine] | 1100 |

same assay, conditions: pH 7.5; 22 °C

| SMILES | IC50 [nM] |
| --- | --- |
| CC(C)[C@H](N)COc1cncc(/C=C/c2ccncc2)c1 [3-[(2S)-2-amino-3-methylbutoxy]-5-[(E)-2-(pyridin-4-yl)ethenyl]pyridine] | 19300 |
| N[C@@H](CCc1ccccc1)COc1cncc(/C=C/c2ccncc2)c1 [3-[(2S)-2-amino-4-phenylbutoxy]-5-[(E)-2-(pyridin-4-yl)ethenyl]pyridine] | 8020 |
| C(=C\c1cncc(OC[C@@H]2CCN2)c1)/c1ccncc1 [3-[(2S)-azetidin-2-ylmethoxy]-5-[(E)-2-(pyridin-4-yl)ethenyl]pyridine] | 10900 |
| C(=C\c1cncc(OC[C@@H]2CCCN2)c1)/c1ccncc1 [3-[(E)-2-(pyridin-4-yl)ethenyl]-5-[(2S)-pyrrolidin-2-ylmethoxy]pyridine] | 23900 |

Other lines, results leading:

| IC50 [nM] | SMILES |
| --- | --- |
| 6760 | N[C@H](COc1cncc(/C=C/c2ccncc2)c1)C(c1ccccc1)c1ccccc1 [3-[(2S)-2-amino-3,3-diphenylpropoxy]-5-[(E)-2-(pyridin-4-yl)ethenyl]pyridine] |
| 324 | N[C@H](COc1cncc(/C=C/c2ccncc2)c1)Cc1cccc2ccccc12 [3-[(2S)-2-amino-3-(naphthalen-1-yl)propoxy]-5-[(E)-2-(pyridin-4-yl)ethenyl]pyridine] |
| 146 | N[C@H](COc1cncc(/C=C/c2ccncc2)c1)Cc1ccc2ccccc2c1 [3-[(2S)-2-amino-3-(naphthalen-2-yl)propoxy]-5-[(E)-2-(pyridin-4-yl)ethenyl]pyridine] |
| 320 | N#Cc1cccc(C[C@H](N)COc2cncc(/C=C/c3ccncc3)c2)c1 [3-[(2S)-2-amino-3-({5-[(E)-2-(pyridin-4-yl)ethenyl]pyridin-3-yl}oxy)propyl]benzonitrile] |
| 875 | N[C@H](COc1cncc(/C=C/c2ccncc2)c1)Cc1cccc(O)c1 [3-[(2S)-2-amino-3-({5-[(E)-2-(pyridin-4-yl)ethenyl]pyridin-3-yl}oxy)propyl]phenol] |
